Source: the METLIN SMRT retention time set (Domingo-Almenara et al. 2019)

Test: gradient 5% acetonitrile 3 min, to 50% in 2 min, to 85% in 15 min, held 3 min, 100 µL/min
Settings: column: Zorbax Extend-C18 2.1 x 50 mm; eluents: water / acetonitrile, 0.1% formic acid
How it was run: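 Each retention time is based on an adduct peak selected computationally and verified by manual inspection. Measurements used HPLC–quadrupole time-of-flight mass spectrometry in positive and negative ionization mode on mixtures of ~100 pure standards. Chromatography ran on a Zorbax Extend-C18 column (2.1 × 50 mm, 1.8 μm) at 100 μL/min with water and acetonitrile, each containing 0.1% formic acid, and dead and dwell volumes of 40 μL and 900 μL.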

RP-LC retention time [s]	SMILES
993	Cc1ccccc1-c1noc(C2CCCN2C(=O)Nc2ccc(F)cc2F)n1 (centres undefined)
786	Cc1cc(N(CCO)Cc2ccccc2)n2nc(-c3ccccc3C)nc2n1
862	CCSC1=C(C#N)C(c2ccccc2Cl)C(C(=O)Nc2ccccc2C)=C(C)N1 (centres undefined)
726	CCn1cnc(S(=O)(=O)N2CCCC(C(=O)NCc3ccccc3C)C2)c1 (centres undefined)
912	O=C(Nc1ccccc1)c1cccc(N2CC(C(=O)Nc3cccc(Cl)c3)CC2=O)c1 (centres undefined)
792	CC(CNC(=O)C1CCN(S(=O)(=O)c2ccc3c(c2)NC(=O)CO3)CC1)c1ccccc1 (centres undefined)
928	Cc1ccc(NC(=O)N2CCC(CCNC(=O)C3(c4ccccc4)CC3)CC2)cc1F
702	CCc1nc(-c2csc(S(=O)(=O)N3CCC(C(=O)NCc4ccccc4)CC3)c2)no1
567	O=C(CCc1c(-c2ccc(Br)cc2)nc2ccccn12)NCCN1CCCC1
591	O=C(Nc1nc2ccccc2[nH]1)C1CCN(c2ccc(-c3cccs3)nn2)CC1
880	CCOC(=O)c1cn(Cc2ccccc2F)c2nc(C)ccc2c1=O
990	Cc1nn(-c2ccc(-c3ccccc3)nn2)c(C)c1S(=O)(=O)NCc1ccc(F)cc1F
661	CCC1CCCCN1C(=O)c1cnc2nc(C)ccc2c1Nc1ccccc1OC (centres undefined)
952	CN1C(=O)COc2ccc(-c3csc(NC(=O)c4ccc(F)cc4)n3)cc21
799	Cc1ccccc1Nc1c(-c2cccc(Br)c2)nc2ccccn12
684	COc1ccc(C)cc1NC(=O)CN1CCN(Cc2ccccc2)C(=O)C1=O
1130	COc1ccccc1NC(=O)C(=O)c1cn(CC(=O)N2CCCC2)c2ccccc12
1150	O=S(=O)(c1ccccc1C(F)(F)F)N1CCc2nc(-c3ccc(F)cc3)ncc2C1
995	Cc1cccc(Nc2nc(C(=O)NCCC3=CCCCC3)nc3ccccc23)c1
582	CS(=O)(=O)c1ccc2nc(NC(=O)CN3C(=O)CCC3=O)sc2c1
1110	Cc1ccc(C(=O)Nc2nc3c(s2)CN(S(=O)(=O)c2ccccc2)CC3)cc1Br
855	Cc1nc(-c2ccc(NC(=O)c3ccc([N+](=O)[O-])cc3)cc2)cs1
686	O=C(Cn1cnc2nc(N3CCCC(C(=O)NC4CC4)C3)sc2c1=O)Nc1ccccc1Cl (centres undefined)
649	COCCNC(=O)Cn1nc(C)c2c(C)n(-c3ccccc3)nc2c1=O
789	Cc1cc2c(cc1S(=O)(=O)N1CCCC1C(=O)Nc1cccc(C)c1C)OCC(=O)N2 (centres undefined)
760	O=C1CCc2cc(NC(=O)c3ccc(-c4ccccc4)cc3)ccc2N1
724	Cc1ccc(CN2C(=O)C3CCCCC3C2=O)cc1S(=O)(=O)N1CCN(c2ccccn2)CC1 (centres undefined)
790	CCC(=O)N1CCc2cc(N3CC(C(=O)Nc4cc(C)ccc4C)CC3=O)ccc21 (centres undefined)
588	Cc1noc(C)c1CN1CCN(C(=O)c2ccc3ccccc3n2)CC1

Further lines, the compound ahead of its results:

SMILES	RP-LC retention time [s]
Cc1cc(C)nc(N2CCN(c3nc(C)cc(C)c3C#N)CC2)n1	990
CC(=O)Oc1ccccc1C1=NN(C(C)=O)C(c2ccccc2Cl)O1 (centres undefined)	974
O=C(Nc1ccc(N2CCOCC2)cc1)C1CCCN(c2ccnc(-c3cccc(F)c3)n2)C1 (centres undefined)	649
CCNC(=O)c1cc(-c2ccc(F)cc2)n(C)c1C	820
COc1ccc(C2(C(=O)N3C[C@@H](CO)[C@H](c4ccccn4)C3)CC2)cc1	605
O=C1CC(c2noc(-c3ccc(OC(F)(F)F)cc3)n2)CN1c1ccc(F)cc1 (centres undefined)	1040
Cc1ccc2ncc(C(=O)NCCCOC(C)C)c(=O)n2c1	656
COc1ccc(Cn2c(=O)c3sccc3n(Cc3nc(-c4ccc(Cl)c(F)c4)no3)c2=O)cc1	1190
COc1ccc(-c2nnc(Cc3nc(-c4ccc5c(c4)OCO5)no3)o2)cc1	916
Cc1cc(C)n(CCNC(=O)C(=O)Nc2cc(C)on2)n1	608
Cc1ccc(Nc2nc(-c3ccc4c(c3)OCO4)cs2)nc1	863
COc1ccc(-c2noc(CN3C(=O)COc4cc(C)ccc43)n2)cc1OC	954
CCCN(CC1CCOC1)C(=O)c1cc(F)cc(F)c1 (centres undefined)	808
COC(=O)c1[nH]c(C)c(C(=O)CN(CC2CCCO2)C(=O)c2ccc(OC)cc2)c1C (centres undefined)	1030
CCCS(=O)(=O)N1CC(c2nc(CCOc3cccc(C)c3)no2)C1	995
NC(=O)CNC(=O)c1nc(-c2ccsc2)nc2c1OCCO2	613
Cc1nnc(-c2coc(S(=O)(=O)N3CCCCC3)c2)o1	767
CCCCN(C)c1ccc2nnc(CCc3nc(-c4cccc(C)c4)no3)n2n1	951
CN(C)c1ncncc1N1CCC(C(=O)N2CCN(c3cccc(Cl)c3)CC2)CC1	722
O=C(Cc1cccs1)NC1CCN(c2nnc3ccc(Cl)cn23)CC1	596

SMILES	RP-LC retention time [s]
COc1ccc(Cl)cc1NC(=O)Cn1ccc2ccc(-c3nnc(C)o3)cc21	898
Cc1noc(C2CN(C(=O)NCc3ccc(F)cc3)CC23CCOCC3)n1 (centres undefined)	698
COc1ccc(OCc2noc(CNC(=O)c3cc(-c4ccco4)on3)n2)cc1	832
Cc1noc(C)c1CCC(=O)N1CC(c2nc3ccccc3[nH]2)C1	552
Cc1cc(C)c(C(=O)N2CCC(CC(=O)NCCCN3CCCC3)CC2)[nH]1	586
O=C(NCc1ccc2c(c1)OCO2)C(=O)c1cccn1Cc1ccccc1	980
Cc1noc(C)c1CCC(=O)N1CCC(c2nc(C3CC3)n[nH]2)CC1	564
COc1ccc(CCNS(=O)(=O)c2c(N)n(C)c(=O)n(C)c2=O)cc1OC	605
CCCCCCCCCOc1ccc2[nH]cc(CCN)c2c1	996
CC(C)CCNC(=O)C1(C)Cn2nc(C(=O)NCCc3c[nH]c4ccccc34)cc2C(=O)N1C (centres undefined)	786
O=C(Cc1nnc(-c2ccc3ncccc3c2)o1)NC1CCCCC1	679
O=C(c1ccc(OCC2CCCN(C(=O)c3ccco3)C2)cc1)N1CCOCC1 (centres undefined)	712
Cc1ccc(NS(=O)(=O)c2cc(-c3[nH]ncc3C(=O)N(C)C)oc2C)cc1C	729
CN(C)C[C@@H]1CN(C2CCOCC2)C[C@H]1NS(=O)(=O)Cc1cccc(F)c1	553
CCN(C(=O)C(=O)c1c(C)[nH]c2ccccc12)c1ccccc1	809
CCc1noc(NC(C)=O)c1-c1ccc(OC)c(S(=O)(=O)Nc2c(C)cccc2C)c1	790
O=C(CN1CC=C(c2cnn(-c3ccc(F)cc3)c2)CC1)N1CCN(c2ccc(F)cc2)CC1	739
COc1ccc(-c2noc(C3CCCN3C(=O)Nc3ccc(OC)cc3OC)n2)cc1 (centres undefined)	952
c1ccc2nc(OCCN3CC3)ccc2c1	727
c1ccc(-n2nnc(-c3noc(-c4ccncc4)n3)c2-c2ccncc2)cc1	732

SMILES	RP-LC retention time [s]
Cn1cc(-c2ccc(F)cc2)cc1C(=O)N1CCCC1	906
COC(=O)c1cccc(NC(=O)CSc2nccc(N3CCN(c4ccc(OC)cc4)CC3)n2)c1	743
CCCNC(=O)c1sc(Nc2cccc(C)n2)nc1C	697
CCOC(=O)COc1cc(O)cc2oc(-c3ccccc3)cc(=O)c12	695
COc1ccc(N2CC(c3nc(-c4ccc(OC)c(OC)c4)no3)CC2=O)cc1Cl (centres undefined)	884
CCOc1ccc(C(=O)N2CCC3(C2)C(=O)N(C)c2ccc(OC)cc23)cc1 (centres undefined)	788
CSc1ccccc1CN1CCC(CNC(=O)C(=O)NCCC2=CCCCC2)CC1	622
COCc1nncn1C1CN(C(=O)Cc2cc(OC)ccc2OC)C1	610
Cc1ccc(-c2ncccc2CNS(=O)(=O)c2ccc(Cl)cc2)cc1	766
COC(=O)c1c(-c2ccc(Cl)cc2)noc1NCCN1CCOCC1	660
CCCN(C)C(=O)CCC1CCN(c2cc(NCC)ncn2)CC1	571
O=C(COc1ccc(Cl)cc1)N1CCC2(C1)C(=O)Nc1ccccc12 (centres undefined)	776
O=c1cc(CSc2nc(NCc3ccc4c(c3)OCO4)c3ccccc3n2)nc2ccccn12	635
Cc1ccc(Nc2nc(C(=O)NCCc3c(C)noc3C)nc3ccccc23)cc1	717
CCc1ccc2[nH]c3c(c(=O)c2c1)CN(CC(=O)NCc1ccc(F)cc1)CC3	626
CCc1ccc(-c2noc(Cn3c(=O)n(-c4ccc(Cl)cc4)c(=O)c4sccc43)n2)cc1	1160
CCc1nc2ccccc2n1CC(O)COc1cc(C)c(Cl)c(C)c1 (centres undefined)	770
CCOC(=O)CNC(=O)N1CCC(n2c(-c3ccc(C)cc3)nc3cccnc32)C1 (centres undefined)	642
CSc1nnc(-c2nn(C)c3c2CN(C(=O)c2ccc(F)cc2)CC3)n1C	656
CCn1cc(S(=O)(=O)Nc2ccc(F)cc2Cl)c2cccnc21	870
